{
  "source": "patent US4216128A",
  "about": "“Enkephalin analogues” (American Home Products Corporation, priority 1979, dated 1980)",
  "key": {"opiate receptor [1]": {"system": "opiate receptor", "assay": "relative displacement potency, procedure of Chang et al.", "type": "binding", "details": "relative to morphine"}, "CF-1 mice": {"system": "CF-1 mice", "assay": "phenylbenzoquinone induced writhing test (analgesia)", "type": "in vivo"}, "[2]": {"details": "peripheral administration; cited from earlier work"}, "[3]": {"details": "intravenous administration; cited from earlier work"}, "rats": {"system": "rats", "details": "injection in the brain ventricle, fully reversible by naloxone; cited from earlier work"}, "opiate receptor [4]": {"system": "opiate receptor", "details": "brain homogenates; cited from earlier work"}, "guinea pig ileum": {"system": "guinea pig ileum", "details": "cited from earlier work"}, "mouse vas deferens": {"system": "mouse vas deferens", "details": "cited from earlier work"}, "[5]": {"details": "Coy et al.; cited from earlier work"}, "[6]": {"details": "intracerebroventricular; cited from earlier work"}},
  "note": "Non-standard residues stand in square brackets, D forms with d. Residues, ends and D or L forms follow the SMILES beside them.",
  "data": [
    {"compound": "CN[C@@H](Cc1ccc(O)cc1)C(=O)N[C@H](CS)C(=O)NCC(=O)N(C)[C@@H](Cc1ccccc1)C(=O)N[C@H](CC(N)=O)C(N)=O", "note": "[Example 4, N-Methyl-L-tyrosyl-D-cysteinyl-glycyl-N-methyl-L-phenylalanyl-D-asparagine amide]", "values": [
      {"measurement": "relative displacement potency", "setting": "opiate receptor [1]", "value": "two"},
      {"measurement": "percent analgesia after oral administration", "setting": "CF-1 mice; oral dose of 50 mg/kg, 30 minutes", "value": 10, "unit": "%"},
      {"measurement": "ED50 (analgesia, absence of writhing)", "setting": "CF-1 mice; subcutaneous administration, at 15 minutes, mice", "value": "0.64 (0.29-1.4) mg/kg"}
    ]},
    {"compound": "CSCC[C@H](NC(=O)[C@H](Cc1ccccc1)NC(=O)CNC(=O)[C@@H](C)NC(=O)[C@@H](N)Cc1ccc(O)cc1)C(N)=O", "note": "[Tyr-D-Ala-Gly-Phe-Met-amide]", "values": [
      {"measurement": "activity when administered peripherally", "setting": "[2]", "value": "inactive"}
    ]},
    {"compound": "CSCC[C@@H](NC(=O)[C@@H](N)Cc1ccc(O)cc1)C(=O)NCC(=O)N[C@@H](Cc1ccccc1)C(=O)N1CCC[C@H]1C(N)=O", "note": "[Tyr-D-Met-Gly-Phe-Pro-NH2] (H-Y[dM]GFP-NH2)", "values": [
      {"measurement": "antinociceptive potency relative to morphine", "setting": "[3]", "value": "5.5 times more potent than morphine"}
    ]},
    {"compound": "CC(C)C[C@H](NC(=O)[C@H](Cc1ccccc1)NC(=O)CNC(=O)CNC(=O)[C@@H](N)Cc1ccc(O)cc1)C(=O)O", "note": "[leucine-enkephalin, H-Tyr-Gly-Gly-Phe-Leu-OH]", "values": [
      {"measurement": "analgesia", "setting": "rats", "value": "profound analgesia"}
    ]},
    {"compound": "CSCC[C@H](NC(=O)[C@H](Cc1ccccc1)NC(=O)CNC(=O)CNC(=O)[C@@H](N)Cc1ccc(O)cc1)C(=O)O", "note": "[methionine-enkephalin, H-Tyr-Gly-Gly-Phe-Met-OH]", "values": [
      {"measurement": "analgesia", "setting": "rats", "value": "profound analgesia"},
      {"measurement": "inhibition of stereospecific receptor binding of 3H-naloxone", "setting": "opiate receptor [4]", "value": "inhibit"},
      {"measurement": "block of electrically evoked contractions", "setting": "guinea pig ileum", "value": "block electrically evoked contractions"},
      {"measurement": "block of electrically evoked contractions", "setting": "mouse vas deferens", "value": "block electrically evoked contractions"}
    ]},
    {"compound": "D-Met^5 enkephalin", "values": [
      {"measurement": "activity relative to Met enkephalin", "setting": "[5]", "value": "one tenth"}
    ]},
    {"compound": "Tyr-D-Ala-Gly-Phe-D-Leu", "values": [
      {"measurement": "activity when administered intracerebroventricularly", "setting": "[6]", "value": "activity"}
    ]}
  ]
}
